In patent US9920010B2, “CXCR7 receptor modulators” (IDORSIA PHARMACEUTICALS LTD, priority 2013, dated 2018):

Target: T1, CXCR7 (Homo sapiens, UniProt P25106)
T1 construct: host or cells: CHO-K1 (PathHunter CHO-K1 CXCR7 b-arrestin cell line, stably transfected)
Assay: PathHunter CHO-K1 CXCR7 b-arrestin recruitment assay (CXCR7 agonistic activity)
Type: cell-based
Conditions: PathHunter CHO-K1 CXCR7 b-arrestin cell line
Method in brief: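 Stable CHO-K1 line with C-terminally ProLink-tagged CXCR7 and β-arrestin 2–EA fusion; β-arrestin recruitment restores β-gal activity, read by chemiluminescence after 1 h RT detection. Cells seeded 24 h, starved in OPTIMEM 3–4 h, exposed to compounds 90 min at 37 °C in HBSS/HEPES/BSA. Geometric-mean EC50 from repeated measurements.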

T1 sequence (P25106 whole entry): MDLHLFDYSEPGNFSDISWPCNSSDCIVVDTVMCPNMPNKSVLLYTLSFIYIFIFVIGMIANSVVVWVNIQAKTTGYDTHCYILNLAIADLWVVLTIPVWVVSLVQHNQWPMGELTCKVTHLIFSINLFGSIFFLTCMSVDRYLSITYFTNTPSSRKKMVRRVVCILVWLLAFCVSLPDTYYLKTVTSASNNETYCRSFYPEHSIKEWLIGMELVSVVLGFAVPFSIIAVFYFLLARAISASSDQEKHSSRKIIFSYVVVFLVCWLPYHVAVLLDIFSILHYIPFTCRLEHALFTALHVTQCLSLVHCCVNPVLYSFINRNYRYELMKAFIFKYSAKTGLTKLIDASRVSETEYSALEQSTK
T1 sequence (P32121 whole entry partner): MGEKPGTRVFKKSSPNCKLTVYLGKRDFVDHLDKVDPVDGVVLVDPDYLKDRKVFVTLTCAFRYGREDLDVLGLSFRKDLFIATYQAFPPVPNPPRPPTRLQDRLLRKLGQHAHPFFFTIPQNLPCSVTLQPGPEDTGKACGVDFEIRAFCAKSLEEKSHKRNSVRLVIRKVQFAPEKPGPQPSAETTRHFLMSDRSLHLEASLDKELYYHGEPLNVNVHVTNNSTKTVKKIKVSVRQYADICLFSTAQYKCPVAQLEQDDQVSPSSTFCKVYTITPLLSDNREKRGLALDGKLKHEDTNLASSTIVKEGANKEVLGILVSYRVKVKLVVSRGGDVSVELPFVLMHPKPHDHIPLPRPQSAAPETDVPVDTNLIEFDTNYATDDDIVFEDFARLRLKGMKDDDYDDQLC

Row | SMILES | EC50 [nM]
1 | O=C(CNc1cccc2c1CCN(CC1CC1)C2)N(CCNCC(F)(F)F)Cc1ccccc1C(F)(F)F [Example 434, 2-(2-Cyclopropylmethyl-1,2,3,4-tetrahydro-isoquinolin-5-ylamino)-N-[2-(2,2,2-trifluoro-ethylamino)-ethyl]-N-(2-trifluoromethyl-benzyl)-acetamide] | 20
2 | CN(C)CCN(Cc1ncccc1Br)C(=O)CNc1cccc2c1C(C)(C)CN(CC1CC1)C2 [Example 575, N-(3-Bromo-pyridin-2-ylmethyl)-2-(2-cyclopropylmethyl-4,4-dimethyl-1,2,3,4-tetrahydro-isoquinolin-5-ylamino)-N-(2-dimethylamino-ethyl)-acetamide] | 0.9
3 | CC(C)(O)CN(Cc1ncccc1Br)C(=O)CNc1cccc2c1C(C)(C)CN(CC1CC1)C2 [Example 576, N-(3-Bromo-pyridin-2-ylmethyl)-2-(2-cyclopropylmethyl-4,4-dimethyl-1,2,3,4-tetrahydro-isoquinolin-5-ylamino)-N-(2-hydroxy-2-methyl-propyl)-acetamide] | 6
4 | CN(C)CCN(Cc1ccccc1Cl)C(=O)CNc1cccc2c1C(C)(C)CN(CC1CC1)C2 [Example 577, N-(2-Chloro-benzyl)-2-(2-cyclopropylmethyl-4,4-dimethyl-1,2,3,4-tetrahydro-isoquinolin-5-ylamino)-N-(2-dimethylamino-ethyl)-acetamide] | 0.9
5 | CC(C)N1CCc2c(cccc2NCC(=O)N(CCN(C)C)Cc2ccccc2)C1 [compound 109] | 73
6 | CN(C)CCN(Cc1ccccc1)C(=O)CNc1cccc2c1CCN(CC1CC1)C2 [compound 110, N-Benzyl-2-(2-cyclopropylmethyl-1,2,3,4-tetrahydro-isoquinolin-5-ylamino)-N-(2-dimethylamino-ethyl)-acetamide] | 14
7 | CCC(=O)N1CCc2c(cccc2NCC(=O)N(CCN(C)C)Cc2ccccc2)C1 [compound 111, N-Benzyl-N-(2-dimethylamino-ethyl)-2-(2-propionyl-1,2,3,4-tetrahydro-isoquinolin-5-ylamino)-acetamide] | 32
8 | CC(C)CN1CCc2c(cccc2NCC(=O)N(CCN(C)C)Cc2ccccc2)C1 [compound 112, N-Benzyl-N-(2-dimethylamino-ethyl)-2-(2-isobutyl-1,2,3,4-tetrahydro-isoquinolin-5-ylamino)-acetamide] | 40
9 | CCCC(=O)N1CCc2c(cccc2NCC(=O)N(CCN(C)C)Cc2ccccc2)C1 [compound 114, N-Benzyl-2-(2-butyryl-1,2,3,4-tetrahydro-isoquinolin-5-ylamino)-N-(2-dimethylamino-ethyl)-acetamide] | 36
10 | CC(C)C(=O)N1CCc2c(cccc2NCC(=O)N(CCN(C)C)Cc2ccccc2)C1 [compound 115] | 54
11 | CN(C)CCN(Cc1ccccc1)C(=O)CNc1cccc2c1CCN(CC(C)(C)C)C2 [compound 116] | 96
12 | CCOC(=O)N1CCc2c(cccc2NCC(=O)N(CCN(C)C)Cc2ccccc2)C1 [compound 117] | 79
13 | CN(C)CCN(Cc1ccccc1)C(=O)CNc1cccc2c1CCN(Cc1ccco1)C2 [compound 118] | 126
14 | CC(C)CC(=O)N1CCc2c(cccc2NCC(=O)N(CCN(C)C)Cc2ccccc2)C1 [compound 119] | 87
15 | CN(C)CCN(Cc1ccccc1)C(=O)CNc1cccc2c1CCN(CCC(C)(C)C)C2 [compound 120] | 154
16 | CC(C)OC(=O)N1CCc2c(cccc2NCC(=O)N(CCN(C)C)Cc2ccccc2)C1 [compound 121] | 101
17 | CC(C)COC(=O)N1CCc2c(cccc2NCC(=O)N(CCN(C)C)Cc2ccccc2)C1 [compound 122] | 337
18 | CN(C)CCN(Cc1ccccc1)C(=O)CNc1cccc2c1CCN(Cc1ccccc1)C2 [compound 123] | 120
19 | CN(C)CCN(Cc1ccccc1)C(=O)CNc1cccc2c1CCN(CC1CCCCC1)C2 [compound 124] | 52
20 | CN(C)CCN(Cc1ccccc1)C(=O)CNc1cccc2c1CCN(C(=O)c1ccccc1)C2 [compound 125] | 240
21 | CN(C)CCN(Cc1ccccc1)C(=O)CNc1cccc2c1CCN(CCc1ccccc1)C2 [compound 126] | 249
22 | CN(C)CCN(Cc1ccccc1)C(=O)CNc1cccc2c1CCN(C(=O)OCC(C)(C)C)C2 [compound 127] | 395
23 | CN(C)CCN(Cc1ccccc1)C(=O)CNc1cccc2c1CCN(C(=O)CC1CCCCC1)C2 [compound 129] | 449
24 | CN(C)CCN(Cc1ccccc1)C(=O)CNc1cccc2c1CCN(C(=O)Oc1ccccc1)C2 [compound 130] | 390
25 | CN(C)CCN(Cc1ccccc1)C(=O)CNc1cccc2c1CCN(C(=O)OCc1ccccc1)C2 [compound 131] | 450
26 | CC(C)CCN(Cc1ccccc1)C(=O)CNc1cccc2c1CCN(C)C2 [compound 132] | 130

Next, values leading:

Row | EC50 [nM] | SMILES
27 | 1 | CN(CCN(Cc1ccccc1C(F)(F)F)C(=O)CNc1cccc2c1CCN(CC1CC1)C2)C1CCC1 [Example 447, N-[2-(Cyclobutyl-methyl-amino)-ethyl]-2-(2-cyclopropylmethyl-1,2,3,4-tetrahydro-isoquinolin-5-ylamino)-N-(2-trifluoromethyl-benzyl)-acetamide]
28 | 34 | CN(C)CCN(Cc1ccccc1C(F)(F)F)C(=O)CNc1cccc2c1CN(S(C)(=O)=O)CC2 [Example 544, N-(2-Dimethylamino-ethyl)-2-(2-methanesulfonyl-1,2,3,4-tetrahydro-isoquinolin-8-ylamino)-N-(2-trifluoromethyl-benzyl)-acetamide]
29 | 8 | CN(C)CCN(Cc1ccccc1C(F)(F)F)C(=O)CNc1cccc2c1CN(C(=O)N(C)C)CC2 [Example 546, 8-({[(2-Dimethylamino-ethyl)-(2-trifluoromethyl-benzyl)-carbamoyl]-methyl}-amino)-3,4-dihydro-1H-isoquinoline-2-carboxylic acid dimethylamide]
30 | 15 | CNC(=O)N1CCc2cccc(NCC(=O)N(CCN(C)C)Cc3ccccc3C(F)(F)F)c2C1 [Example 547, 8-({[(2-Dimethylamino-ethyl)-(2-trifluoromethyl-benzyl)-carbamoyl]-methyl}-amino)-3,4-dihydro-1H-isoquinoline-2-carboxylic acid methylamide]
31 | 59 | CN(C)CCN(Cc1ccccc1C(F)(F)F)C(=O)CNc1cccc2c1CN(CC(F)(F)F)CC2 [Example 558, N-(2-Dimethylamino-ethyl)-2-[2-(2,2,2-trifluoro-ethyl)-1,2,3,4-tetrahydro-isoquinolin-8-ylamino]-N-(2-trifluoromethyl-benzyl)-acetamide]
32 | 29 | CN(C)CCN(Cc1ccccc1C(F)(F)F)C(=O)NCc1cccc2c1CCN(CC1CC1)C2 [Example 568, 3-(2-Cyclopropylmethyl-1,2,3,4-tetrahydro-isoquinolin-5-ylmethyl)-1-(2-dimethylamino-ethyl)-1-(2-trifluoromethyl-benzyl)-urea]
33 | 26 | CN(C)CCN(Cc1ccccc1C(F)(F)F)C(=O)NCc1cccc2c1CN(CC1CC1)CC2 [Example 569, 3-(2-Cyclopropylmethyl-1,2,3,4-tetrahydro-isoquinolin-8-ylmethyl)-1-(2-dimethylamino-ethyl)-1-(2-trifluoromethyl-benzyl)-urea]
34 | 86 | CN(C)CCN(Cc1ccccc1C(F)(F)F)C(=O)CNc1cccc2c1CCN(C(=O)C1(C(F)(F)F)CC1)C2 [Example 571, N-(2-Dimethylamino-ethyl)-N-(2-trifluoromethyl-benzyl)-2-[2-(1-trifluoromethyl-cyclopropanecarbonyl)-1,2,3,4-tetrahydro-isoquinolin-5-ylamino]-acetamide]
35 | 5 | CN(C)CCN(Cc1ccccc1C(F)(F)F)C(=O)CNc1cccc2c1CCN(C(=O)c1ccco1)C2 [Example 572, N-(2-Dimethylamino-ethyl)-2-[2-(furan-2-carbonyl)-1,2,3,4-tetrahydro-isoquinolin-5-ylamino]-N-(2-trifluoromethyl-benzyl)-acetamide]
36 | 3 | CCCN1CCc2c(cccc2NCC(=O)N(CCN(C)C)Cc2ccccc2C(F)(F)F)C1 [Example 573, N-(2-Dimethylamino-ethyl)-2-(2-propyl-1,2,3,4-tetrahydro-isoquinolin-5-ylamino)-N-(2-trifluoromethyl-benzyl)-acetamide]
37 | 6 | CN(C)CCN(Cc1ccccc1C(F)(F)F)C(=O)CNc1cccc2c1CCN(CCCF)C2 [Example 574, N-(2-Dimethylamino-ethyl)-2-[2-(3-fluoro-propyl)-1,2,3,4-tetrahydro-isoquinolin-5-ylamino]-N-(2-trifluoromethyl-benzyl)-acetamide]
38 | 100 | CN(C)CCN(Cc1ccccc1)C(=O)CNc1cccc2c1CCN(C)C2 [compound 106]
39 | 43 | CCN1CCc2c(cccc2NCC(=O)N(CCN(C)C)Cc2ccccc2)C1 [compound 107, N-Benzyl-N-(2-dimethylamino-ethyl)-2-(2-ethyl-1,2,3,4-tetrahydro-isoquinolin-5-ylamino)-acetamide]
40 | 20 | CCN1CCc2c(cccc2NCC(=O)N(CCN(C)C)Cc2ccccc2Cl)C1 [compound 133, N-(2-Chloro-benzyl)-N-(2-dimethylamino-ethyl)-2-(2-ethyl-1,2,3,4-tetrahydro-isoquinolin-5-ylamino)-acetamide]
41 | 2 | CN(C)CCN(Cc1ccccc1Cl)C(=O)CNc1cccc2c1CCN(CC1CC1)C2 [compound 134, N-(2-Chloro-benzyl)-2-(2-cyclopropylmethyl-1,2,3,4-tetrahydro-isoquinolin-5-ylamino)-N-(2-dimethylamino-ethyl)-acetamide]
42 | 9 | CCN1CCc2c(cccc2NCC(=O)N(CCN(C)C)Cc2ccccc2C(F)(F)F)C1 [compound 135, N-(2-Dimethylamino-ethyl)-2-(2-ethyl-1,2,3,4-tetrahydro-isoquinolin-5-ylamino)-N-(2-trifluoromethyl-benzyl)-acetamide]
